Results reported in patent EP0364941A1, “Branched-chain alkyl esters of 2-(4-(2-piperidino ethoxy)benzoyl)benzoic acid, processes for their preparation and their use as spasmolytic agents” (HOECHST AKTIENGESELLSCHAFT, priority 1988, dated 1990).

Legend:
Assay type in all cases: in vivo
small intestine [1] = assay: Motility of the small intestine in the conscious dog; details: for Area under the contraction curve, Postdrug 10 min: 10 min postdrug; for Area under the contraction curve, Postdrug 10 min / Area under the contraction curve, Postdrug 20 min / Area under the contraction curve, Postdrug 30 min / Area under the contraction curve, Postdrug 40 min / Area under the contraction curve, Postdrug 50 min / Area under the contraction curve, Postdrug 60 min / Area under the contraction curve, Predrug -20 - 0: phase I and II; for Area under the contraction curve, Postdrug 20 min: 20 min postdrug; for Area under the contraction curve, Postdrug 30 min: 30 min postdrug; for Area under the contraction curve, Postdrug 40 min: 40 min postdrug; for Area under the contraction curve, Postdrug 50 min: 50 min postdrug; for Area under the contraction curve, Postdrug 60 min: 60 min postdrug; for Inhibition Maximal / Inhibition Mean / ED50: phase I+II activity; for Area under the contraction curve, Predrug -20 - 0: predrug baseline -20 - 0 min; for Duration of action: when postdrug values reached 90 % or more of predrug values; for ED50: Canis lupus familiaris, iv, conscious dog, read-out: intravenous IC₅₀-values determined from maximal inhibition
Source text: Male dogs (THG Tierhandelsgesellschaft Rodenbach, Hoe:BEAK (Beagle)) weighing 15 - 20 kg were used in all experiments. At least 4 weeks prior to the experiment the dogs had been equipped with miniaturized strain gage force transducers (T1-T3) (2x4 mm), sutured onto the gut at the locations mentioned below. The cables of the transducers were embedded into a cannula which carried the plug for external electric connection. This stainless steel cannula was implanted into the abdominal wall, close below the costal arch. Each transducer was connected to a measuring bridge. The signals were on line stored using a HP 9835 A computer, allowing later analysis of the data. • T1 : Proximal jejunum • T2 : Distal jejunum • T3 : Ileum
(§1) 18 hours prior to the experiment food was withdrawn from the animals, water ad libidum. All experiments started between 08:00 and 09:00 am.
The following motility parameters were determined: The integral under the […] at 10 min intervals (mNx10min) as an index of phase I + II activity. The duration of drug action (min.) The duration of the interdigestive migrating complex (IMC) (min) as a measure of phase III activity.
Test Compound II was given at doses of 0.2 and 0.5 mg/kg i.v. or 5 mg/kg i.g., dissolved in saline, in a volume of 1 ml/kg (i.v.) or 2 ml/kg (i.g.), n = 3 - 6. Control n = 26.
Buscopan was given at doses of 0.3 and 1 mg/kg i.v., dissolved in saline, in a volume of 1 ml/kg, n = 4 - 6. Pitofenone was given at doses of 1 mg/kg i.v., dissolved in saline, in a volume of 1 ml/kg, n = 8.
ID₅₀-values were determined graphically.

large Bowel = assay: Motility of the large bowel (colonic motor complex) in conscious dogs
Source text: Male dogs (THG Tierhandelsgesellschaft Rodenbach, Hoe:BEAK (Beagle)) weighing 15 - 20 kg were used in all experiments.
At least 4 weeks prior the experiment the dogs had been equipped with miniaturised strain gage force transducers (T1-T2) (2x4mm), sutured onto the gut at the locations mentioned below. The cables of the transducers were embedded into a cannula which carried the plug for external electric connection. This stainless steel cannula was implanted into the abdominal wall, close below the costal arch. Each transducer was connected to a measuring bridge. The signals were on line stored using a HP 9835 A computer, allowing later analysis of the data. • T1 : Colon ascendens 10 cm aborafrom the ileoceval valve (ICV) • T2 : Colon transversum 25 cm aborad from the ICV
as §1
The following parameters were determined: The duration of the cycle (min) The duration of the colonic motor complex (CMC) (min) The maximal height of the concentrations (AU: arbitrary units)
Data from the two recording sites (T1-T2) were pooled. […]
For detection of significant differences (p < 0.05) the unpaired t-test was used. Only significant differences were indicated by *.

small intestine [2] = assay: Gastrointestinal propulsion (charcoal transport) in mice
Protocol: Ref.: J.M.A. Zwagemakers and V. Claassen, Arzneim-Forsch/-Drug Res. 30 (II) Nr.9, p.1517 (1980).
The test compounds I and II were given orally by gavage in a range of 10 to 100 mg/kg doses 30 min before charcoal suspension (0.2 ml/animal, 10% charcoal in 5% gum acacia) in 18 hrs fasted mice (male or female, weight range 18 to 25 g). 30 min after administration of charcoal animals were killed and the extent of charcoal propulsion in the small intestine was measured. The inhibitory activity of test compound on charcoal transport was assessed as percent inhibition compared to length of intestine. For control group 10 ml/kg of saline was given.

small intestine [3] = assay: Antispasmodic activity in anaesthetized dog (carbachol or acetylcholine induced intestinal contractions); details: anaesthetised dog
Protocol: Male mongrel dogs of weight range 10 to 15 kg were anaesthetised with pentobarbitone sodium (35 mg/ kg,i.v.). Slow i.v. infusion of pentobarbitone (5 mg/kg/hour) was given for maintenance anaesthesia. The endotracheal tube was inserted to facilitate spontaneous breathing. Both femoral artery and vein were cannulated respectively for recording blood pressure and administering drugs. After laparotomy, a small portion of small intestine distal to duodenum was isolated and saline filled balloon inserted and the opening was sutured. A fine polyethylene cannula was then inserted into the mesenteric artery which supplies to the area of intestine containing balloon for injection of carbachol or acetylcholine. A Statham pressure transducer was then attached to balloon cannula for recording both circular and longitudinal muscle contractions. All the parameters were recorded on 4 channel Nihon-Kohden recorder. The intestinal contractions were recorded after administering a standard dose of carbachol or acetylcholine (0.5 to 3 µg). Test compounds I and II were given at different doses 3,10 and 20 mg/kg intra-duodenally and spasmolytic activity was assessed at various time intervals. Anti-spasmodic activity was assessed by calculating percent reduction in agonist induced contractions and also noting onset and duration of activity. The test compounds were dissolved in distilled water (1% soln.). Table 3 Test compounds I and II were given at different doses (10, 30, 100, 300 and 1000 µg/kg) intravenously and spasmolytic activity was assessed at different time intervals. Anti-spasmodic activity was assessed by calculating percent reduction in agonist induced contractions. The ID₅₀ value was calculated from the dose response curve.

`CCCC[N+]1(C)[C@@H]2C[C@@H](OC(=O)[C@H](CO)c3ccccc3)C[C@H]1[C@@H]1O[C@@H]12` (stereo partly shown) [Buscopan] was tested. Which “Area under the contraction curve, Postdrug 10 min” value (small intestine [1]; 0.3 mg/kg i.v.) did it give?
The value was 1.78 mN x 10 min.

And the “Area under the contraction curve, Postdrug 20 min” value (small intestine [1]; 0.3 mg/kg i.v.)?
The value was 1.74 mN x 10 min.

And the “Area under the contraction curve, Postdrug 30 min” value (small intestine [1]; 0.3 mg/kg i.v.)?
Its value is 2.17 mN x 10 min.

And the “Area under the contraction curve, Postdrug 40 min” value (small intestine [1]; 0.3 mg/kg i.v.)?
Its value is 2.15 mN x 10 min.

What about the “Area under the contraction curve, Postdrug 50 min” value (small intestine [1]; 0.3 mg/kg i.v.) of the same compound?
Its value is 1.80 mN x 10 min.

What about the “Area under the contraction curve, Postdrug 60 min” value (small intestine [1]; 0.3 mg/kg i.v.) of the same compound?
The value was 1.60 mN x 10 min.

What about the “Inhibition Maximal” value (small intestine [1]; 0.3 mg/kg i.v.) of the same compound?
Its value is 29%.

And the “Inhibition Mean” value (small intestine [1]; 0.3 mg/kg i.v.)?
The value was 23 ± 6%.

What about the “Area under the contraction curve, Predrug -20 - 0” value (small intestine [1]; 0.3 mg/kg i.v.) of the same compound?
The value was 2.09 mN x 10 min.

What about the Duration of action (small intestine [1]; 0.3 mg/kg i.v.) of the same compound?
The Duration of action was 20 min.

What about the “Area under the contraction curve, Postdrug 10 min” value (small intestine [1]; 1 mg/kg i.v.) of the same compound?
Its value is 0.85 mN x 10 min.

What about the “Area under the contraction curve, Postdrug 20 min” value (small intestine [1]; 1 mg/kg i.v.) of the same compound?
Its value is 0.86 mN x 10 min.

And the “Area under the contraction curve, Postdrug 30 min” value (small intestine [1]; 1 mg/kg i.v.)?
The value was 1.23 mN x 10 min.

And the “Area under the contraction curve, Postdrug 40 min” value (small intestine [1]; 1 mg/kg i.v.)?
Its value is 2.03 mN x 10 min.

What about the “Area under the contraction curve, Postdrug 50 min” value (small intestine [1]; 1 mg/kg i.v.) of the same compound?
The value was 2.09 mN x 10 min.

And the “Area under the contraction curve, Postdrug 60 min” value (small intestine [1]; 1 mg/kg i.v.)?
The value was 1.99 mN x 10 min.

What about the “Inhibition Maximal” value (small intestine [1]; 1 mg/kg i.v.) of the same compound?
The value was 58%.

And the “Inhibition Mean” value (small intestine [1]; 1 mg/kg i.v.)?
Its value is 52 ± 6%.

What about the “Area under the contraction curve, Predrug -20 - 0” value (small intestine [1]; 1 mg/kg i.v.) of the same compound?
The value was 2.03 mN x 10 min.

And the Duration of action (small intestine [1]; 1 mg/kg i.v.)?
The Duration of action was 30 min.

What about the ED50 (small intestine [1]) of the same compound?
The ED50 was 0.6 mg/kg.

What about the “Duration CMC” value (large Bowel; 3 mg/kg intragastrically) of the same compound?
Its value is 6 ± 4 min.

And the “Duration Cycle” value (large Bowel; 3 mg/kg intragastrically)?
Its value is 35 ± 19 min.

And the “Max.heigth of CMC” value (large Bowel; 3 mg/kg intragastrically)?
The value was 35±17 AU.

What about the “Duration CMC” value (large Bowel; 10 mg/kg intragastrically) of the same compound?
The value was 5 ± 1 min.

What about the “Duration Cycle” value (large Bowel; 10 mg/kg intragastrically) of the same compound?
Its value is 32 ± 5 min.

What about the “Max.heigth of CMC” value (large Bowel; 10 mg/kg intragastrically) of the same compound?
The value was 35±10 AU.

And the “effect on colonic motility” value (large Bowel; 3 and 10 mg/kg i.g.)?
The value was “no effect”.

Which results are given for `COC(=O)c1ccccc1C(=O)c1ccc(OCCN2CCCCC2)cc1.Cl` [Test Compound I, Methyl-2-[4-(2-piperidino-ethoxy)-benzoyl]-benzoate hydrochloride]?
Percent Inhibition (small intestine [2]; 60 mg/kg p.o.): 24.0 ± 3.0%; Percent Inhibition (small intestine [2]; 100 mg/kg p.o.): 30.0 ± 4.3%; Duration (small intestine [3]; 20 mg/kg intra-duodenal): 40 min; On-set (small intestine [3]; 20 mg/kg intra-duodenal): 20 min; Percent Inhibition (small intestine [3]; 20 mg/kg intra-duodenal): 63%; ED50 (small intestine [3]; Canis lupus familiaris, iv, read-out: ID₅₀): 0.14 mg/kg; Duration of action (small intestine [3]; intravenous administration): 10 to 30 min; Area under the contraction curve, Postdrug 10 min (small intestine [1]; 1 mg/kg i.v.): 1.58 mN x 10 min; Area under the contraction curve, Postdrug 20 min (small intestine [1]; 1 mg/kg i.v.): 2.01 mN x 10 min; Area under the contraction curve, Postdrug 30 min (small intestine [1]; 1 mg/kg i.v.): 2.59 mN x 10 min; Area under the contraction curve, Postdrug 40 min (small intestine [1]; 1 mg/kg i.v.): 2.29 mN x 10 min; Area under the contraction curve, Postdrug 50 min (small intestine [1]; 1 mg/kg i.v.): 3.16 mN x 10 min; Area under the contraction curve, Postdrug 60 min (small intestine [1]; 1 mg/kg i.v.): 3.64 mN x 10 min; Inhibition Maximal (small intestine [1]; 1 mg/kg i.v.): 47%; Inhibition Mean (small intestine [1]; 1 mg/kg i.v.): 29 ± 7%; Area under the contraction curve, Predrug -20 - 0 (small intestine [1]; 1 mg/kg i.v.): 2.96 mN x 10 min; Duration of action (small intestine [1]; 1 mg/kg i.v.): 40 min; ED50 (small intestine [1]): 1 mg/kg
